Counter-ions that a name gives are not always drawn.
What was measured:
[1] = human, in vivo
pregnant rabbits = experiment: Embryo-fetal development study, subcutaneous, rabbits; type: in vivo
Method: (§1) There are no studies conducted with Formulation A in pregnant women. […] Based on animal data, advise pregnant women of the potential risks to a fetus. [see Data]
(§2) Bupivacaine hydrochloride was administered subcutaneously to rats at doses of 4.4, 13.3, & 40 mg/kg and to rabbits at doses of 1.3, 5.8, & 22.2 mg/kg during the period of organogenesis (implantation to closure of the hard palate). The high doses are approximately 0.6 times the daily maximum recommended human dose (MRHD) of 660 mg/day on a mg/m^2 body surface area (BSA) basis.

rats = experiment: Rat pre- and post-natal development study; type: in vivo; details: 40 mg/kg subcutaneous, implantation through weaning
Method: as §1
The high dose is approximately 0.6 times the daily MRHD of 660 mg/day on a BSA basis.

[2] = tested on: patients undergoing elective arthroscopic shoulder surgery; experiment: Example 1 / Study 1: adverse events and 6-month follow-up safety; type: in vivo, human
Text: The incidence of adverse events (AEs); the incidence of bupivacaine-related CNS side effects; clinical laboratory tests; vital signs; 12-lead ECGs; and physical examinations.
Evaluation by the investigator of wound healing and tissue conditions at the surgical wound on Days 7 and 14, and at the 6-month follow-up visit. An MRI of the shoulder as well as a functionality assessment of the shoulder using the Constant-Murley score were to be performed at the 6-month follow-up visit.
There were three studies evaluating the safety of Formulation A administered during shoulder surgery. […]
Additional follow-up safety data consisting of shoulder MRI, physical examination of the shoulder, and assessments of wound healing were collected at 6 months in Study 1 and at 18 months in Study 2. […]

[3] = tested on: patients undergoing total abdominal hysterectomy; experiment: Adverse reactions, total abdominal hysterectomy study; type: in vivo, human; details: Formulation A N = 60; Bupivacaine HCl N = 27
Method: In a study of patients undergoing total abdominal hysterectomy, Formulation A, vehicle placebo, or bupivacaine HCl was administered into the surgical incision at the end of surgery.

[4] = tested on: patients undergoing a variety of general surgical procedures; experiment: Example 18: safety, Holter monitoring; type: in vivo, human
Text: Patient safety was carefully monitored throughout the trial with traditional assessments of AEs, vital signs, routine laboratory testing, and Holter monitoring (i.e., continuous recording of electrocardiogram) for 3 days after dosing. Special attention was given to cardiovascular and neurological AE, as bupivacaine toxic effects are manifest in those two body systems. In addition, special assessments were done to monitor surgical wound condition and healing over the 30 days of the trial. There were no consistent treatment-related effects on vital signs. Changes in serum chemistry and hematological parameters were those expected after major surgery, with few consistent differences between treatment groups. Cardiac safety was carefully studied using Holter monitoring for 72 hours post-dose, starting about one hour before surgery. In addition, baseline 24-hour ambulatory Holter monitoring was done after the screening visit.

pregnant rats = details: rat, in vivo
Method: as §2

Question: With CCCCN1CCCCC1C(=O)Nc1c(C)cccc1C (centres unmarked) [Bupivacaine HCl] as the molecule, how does the “Cmax (min, max), free bupivacaine” value [1] read?
Answer: (0.3, 10.1) ng/mL

Question: And the “Embryo-fetal deaths at the high dose” value (pregnant rabbits; 22.2 mg/kg subcutaneous, organogenesis, rabbits)?
Answer: An increase in embryo-fetal deaths was observed

Question: And the “Fetal No Observed Adverse Effect Level” value (pregnant rabbits; female, rabbit, in vivo)?
Answer: approximately 0.2 times the MRHD

Question: And the “Pup survival at the high dose” value (rats)?
Answer: decreased pup survival was observed

Question: What about the “Constant-Murley score decreased from baseline” value ([2]; 6-month follow-up) of the same molecule?
Answer: (0%)

Question: And the “Constant-Murley score, follow-up, mean” value ([2]; 6-month follow-up)?
Answer: 65.6

Question: What about the “Shoulder MRI: Improved compared with pre-surgical MRI” value ([2]; 6-month follow-up) of the same molecule?
Answer: (24.0%)

Question: What about the “Shoulder MRI: No change compared with pre-surgical MRI” value ([2]; 6-month follow-up) of the same molecule?
Answer: (36.0%)

Question: What about the “Shoulder MRI: Worsened compared with pre-surgical MRI” value ([2]; 6-month follow-up) of the same molecule?
Answer: (40%)

Question: And the “Adverse reaction: Electrocardiogram T wave inversion” value ([2]; Table 4.1, Study 1)?
Answer: 0%

Question: What about the “Adverse reaction: Headache” value ([2]; Table 4.1, Study 1) of the same molecule?
Answer: 1 (3.4%)

Question: And the “Adverse reaction: Hypoesthesia” value ([2]; Table 4.1, Study 1)?
Answer: 1 (3.4%)

Question: And the “Adverse reaction: Pruritus generalized” value ([2]; Table 4.1, Study 1)?
Answer: 0%

Question: What about the “All TEAEs” value ([2]; safety population) of the same molecule?
Answer: 37.9%

Question: And the “TEAE: Alanine aminotransferase increased” value ([2]; safety population)?
Answer: 0.0%

Question: And the “TEAE: Cardiac disorders” value ([2]; safety population)?
Answer: 10.3%

Question: And the “TEAE: Gastrointestinal disorders” value ([2]; safety population)?
Answer: 3.4%

Question: And the “TEAE: General disorders and administration site conditions” value ([2]; safety population)?
Answer: 0.0%

Question: And the “TEAE: Headache” value ([2]; safety population)?
Answer: 3.4%

Question: What about the “TEAE: Injury, poisoning and procedural complications” value ([2]; safety population) of the same molecule?
Answer: 0.0%

Question: What about the “TEAE: Investigations” value ([2]; safety population) of the same molecule?
Answer: 6.9%

Question: What about the “TEAE: Musculoskeletal and connective tissue disorders” value ([2]; safety population) of the same molecule?
Answer: 6.9%

Question: And the “TEAE: Musculoskeletal pain” value ([2]; safety population)?
Answer: 6.9%

Question: And the “TEAE: Nausea” value ([2]; safety population)?
Answer: 3.4%

Question: And the “TEAE: Nervous system disorders” value ([2]; safety population)?
Answer: 13.8%

Question: And the “TEAE: Respiratory, thoracic and mediastinal disorders” value ([2]; safety population)?
Answer: 6.9%

Question: And the “TEAE: Skin and subcutaneous tissue disorders” value ([2]; safety population)?
Answer: 6.9%

Question: And the “Anemia, (%)” value [3]?
Answer: (11.1%)

Question: What about the “C-reactive protein increased, (%)” value [3] of the same molecule?
Answer: (3.7%)

Question: And the “Dizziness, (%)” value [3]?
Answer: (14.8%)

Question: And the “Hypertension, (%)” value [3]?
Answer: (7.4%)

Question: What about the “Pyrexia, (%)” value [3] of the same molecule?
Answer: (25.9%)

Question: And the “Somnolence, (%)” value [3]?
Answer: (7.4%)

Question: And the “Vomiting, (%)” value [3]?
Answer: (14.8%)

Question: And the “At Least One Cardiovascular TEAE” value ([4]; Cohort 1, % of subjects)?
Answer: (39%)

Question: What about the “At Least One Neurological TEAE” value ([4]; Cohort 1, % of subjects) of the same molecule?
Answer: (22%)

Question: What about the “At Least One Non-Opioid TEAE” value ([4]; Cohort 1, % of subjects) of the same molecule?
Answer: (94%)

Question: What about the “At Least One Serious TEAE” value ([4]; Cohort 1, % of subjects) of the same molecule?
Answer: (22%)

Question: And the “At Least One TEAE” value ([4]; Cohort 1, % of subjects)?
Answer: (94%)

Question: And the “At Least One Wound Infection TEAE” value ([4]; Cohort 1, % of subjects)?
Answer: (11%)

Question: What about the “Maximum Relationship to Study Drug: Not Related” value ([4]; Cohort 1, % of subjects) of the same molecule?
Answer: (72%)

Question: And the “Maximum Relationship to Study Drug: Related” value ([4]; Cohort 1, % of subjects)?
Answer: (22%)

Question: What about the “Maximum Severity: Mild” value ([4]; Cohort 1, % of subjects) of the same molecule?
Answer: (11%)

Question: What about the “Maximum Severity: Moderate” value ([4]; Cohort 1, % of subjects) of the same molecule?
Answer: (61%)

Question: And the “Maximum Severity: Severe” value ([4]; Cohort 1, % of subjects)?
Answer: (22%)

Question: And the “At Least One Cardiovascular TEAE” value ([4]; Cohort 1, number of subjects)?
Answer: 7

Question: What about the “At Least One Neurological TEAE” value ([4]; Cohort 1, number of subjects) of the same molecule?
Answer: 4

Question: What about the “At Least One Non-Opioid TEAE” value ([4]; Cohort 1, number of subjects) of the same molecule?
Answer: 17

Question: What about the “At Least One Serious TEAE” value ([4]; Cohort 1, number of subjects) of the same molecule?
Answer: 4

Question: What about the “At Least One Serious and Related TEAE” value ([4]; Cohort 1, number of subjects) of the same molecule?
Answer: 0

Question: What about the “At Least One Severe and Related TEAE” value ([4]; Cohort 1, number of subjects) of the same molecule?
Answer: 0

Question: And the “At Least One TEAE” value ([4]; Cohort 1, number of subjects)?
Answer: 17

Question: What about the “At Least One TEAE Leading to Study Discontinuation” value (from here on “At Least One TEAE Leading”) ([4]; Cohort 1, number of subjects) of the same molecule?
Answer: 0

Question: What about the “At Least One Wound Infection TEAE” value ([4]; Cohort 1, number of subjects) of the same molecule?
Answer: 2

Question: And the Deaths ([4]; Cohort 1, number of subjects)?
Answer: 0

Question: And the “Maximum Relationship to Study Drug: Not Related” value ([4]; Cohort 1, number of subjects)?
Answer: 13

Question: What about the “Maximum Relationship to Study Drug: Related” value ([4]; Cohort 1, number of subjects) of the same molecule?
Answer: 4

Question: And the “Maximum Severity: Mild” value ([4]; Cohort 1, number of subjects)?
Answer: 2

Question: What about the “Maximum Severity: Moderate” value ([4]; Cohort 1, number of subjects) of the same molecule?
Answer: 11

Question: And the “Maximum Severity: Severe” value ([4]; Cohort 1, number of subjects)?
Answer: 4

Question: What about the “At Least One Cardiovascular TEAE” value ([4]; Cohort 2, % of subjects) of the same molecule?
Answer: (10%)

Question: What about the “At Least One Neurological TEAE” value ([4]; Cohort 2, % of subjects) of the same molecule?
Answer: (50%)

Question: What about the “At Least One Non-Opioid TEAE” value ([4]; Cohort 2, % of subjects) of the same molecule?
Answer: (95%)

Question: What about the “At Least One Serious TEAE” value ([4]; Cohort 2, % of subjects) of the same molecule?
Answer: (5%)

Question: And the “At Least One Severe and Related TEAE” value ([4]; Cohort 2, % of subjects)?
Answer: (5%)

Question: What about the “At Least One TEAE” value ([4]; Cohort 2, % of subjects) of the same molecule?
Answer: (100%)

Question: What about the “At Least One TEAE Leading” value ([4]; Cohort 2, % of subjects) of the same molecule?
Answer: (5%)

Question: What about the “At Least One Wound Infection TEAE” value ([4]; Cohort 2, % of subjects) of the same molecule?
Answer: (5%)

Question: What about the “Maximum Relationship to Study Drug: Not Related” value ([4]; Cohort 2, % of subjects) of the same molecule?
Answer: (50%)

Question: What about the “Maximum Relationship to Study Drug: Related” value ([4]; Cohort 2, % of subjects) of the same molecule?
Answer: (50%)

Question: And the “Maximum Severity: Mild” value ([4]; Cohort 2, % of subjects)?
Answer: (10%)

Question: What about the “Maximum Severity: Moderate” value ([4]; Cohort 2, % of subjects) of the same molecule?
Answer: (65%)

Question: What about the “Maximum Severity: Severe” value ([4]; Cohort 2, % of subjects) of the same molecule?
Answer: (25%)

Question: What about the “At Least One Cardiovascular TEAE” value ([4]; Cohort 2, number of subjects) of the same molecule?
Answer: 2

Question: What about the “At Least One Neurological TEAE” value ([4]; Cohort 2, number of subjects) of the same molecule?
Answer: 10

Question: And the “At Least One Non-Opioid TEAE” value ([4]; Cohort 2, number of subjects)?
Answer: 19

Question: What about the “At Least One Serious TEAE” value ([4]; Cohort 2, number of subjects) of the same molecule?
Answer: 1

Question: What about the “At Least One Serious and Related TEAE” value ([4]; Cohort 2, number of subjects) of the same molecule?
Answer: 0

Question: And the “At Least One Severe and Related TEAE” value ([4]; Cohort 2, number of subjects)?
Answer: 1

Question: And the “At Least One TEAE” value ([4]; Cohort 2, number of subjects)?
Answer: 20

Question: What about the “At Least One TEAE Leading” value ([4]; Cohort 2, number of subjects) of the same molecule?
Answer: 1

Question: What about the “At Least One Wound Infection TEAE” value ([4]; Cohort 2, number of subjects) of the same molecule?
Answer: 1

Question: What about the Deaths ([4]; Cohort 2, number of subjects) of the same molecule?
Answer: 0

Question: What about the “Maximum Relationship to Study Drug: Not Related” value ([4]; Cohort 2, number of subjects) of the same molecule?
Answer: 10

Question: And the “Maximum Relationship to Study Drug: Related” value ([4]; Cohort 2, number of subjects)?
Answer: 10

Question: And the “Maximum Severity: Mild” value ([4]; Cohort 2, number of subjects)?
Answer: 2

Question: And the “Maximum Severity: Moderate” value ([4]; Cohort 2, number of subjects)?
Answer: 13

Question: And the “Maximum Severity: Severe” value ([4]; Cohort 2, number of subjects)?
Answer: 5

Question: What about the “Embryo-fetal effects at the high dose” value (pregnant rats) of the same molecule?
Answer: No embryo-fetal effects were observed
